Patent US20240269151A1, “NASAL SLEEP FORMULATION” (CS MEDICA A/S, priority 2021, published 2024)

Test: Comparison of nasal sleep compositions formulated with type A or type B crystalline CBD
Assay type: in vivo
Conditions: nasal sleep compositions differing only in the crystalline CBD used
Procedure: Two nasal sleep compositions are prepared as disclosed herein, such as according to Example 1, 5 and/or 7, the only difference being that the crystalline CBD used in the formulation is either of type A (needle-like crystals; FIG. 1) or type B (bunch/cluster-like; FIG. 2).
Type A crystalline CBD is sourced from Enecta, while type B CBD is sourced from Pharma Hemp. Further details can e.g. be found in the first aspect of the invention, such as Table 1.

## C=C(C)[C@@H]1CCC(C)=C[C@H]1c1c(O)cc(CCCCC)cc1O [type A CBD, Cannabidiol]
  Activity/potency of type A CBD versus type B CBD: significantly more active than type B CBD
Listed as CBD with a needle-like crystal structure
  Activity/potency of type A CBD versus type B CBD: significantly more potent than CBD with a different crystal structure
